In assay [1] the test system is cocklebur. Kind of assay: Test E preemergence. Type of assay: in vivo, Xanthium strumarium. Particulars: for Cocklebur plant response rating: scale 0 to 100 (0 no effect, 100 complete control); for Plant response rating, Cocklebur: scale 0 to 100, 0 no effect, 100 complete control. The source says:
(§1) Seeds of plant species selected from corn (Zea mays), soybean (Glycine max), velvetleaf (Abutilon theophrasti), lambsquarters (Chenopodium album), wild poinsettia (Euphorbia heterophylla), palmer pigweed (Amaranthus palmeri), waterhemp (common waterhemp, Amaranthus rudis), surinam grass (Brachiaria decumbens), large (Lg) crabgrass (Digitaria sanguinalis), Brazilian crabgrass (Digitaria horizontalis), fall panicum (Panicum dichotomiflorum), giant foxtail (Setaria faberii), green foxtail (Setaria viridis), goosegrass (Eleusine indica), johnsongrass (Sorghum halepense), ragweed (common ragweed, Ambrosia elatior), barnyardgrass (Echinochloa crus-galli), sandbur (southern sandbur, Cenchrus echinatus), arrowleaf sida (Sida rhombifolia), Italian ryegrass (Lolium multiflorum), dayflower (Virginia (VA) dayflower, Commelina virginica), field bindweed (Convolvulus arvensis), morningglory (Ipomoea coccinea), nightshade (eastern black nightshade, Solanum ptycanthum), kochia (Kochia scoparia), yellow nutsedge (Cyperus esculentus), cocklebur (common cocklebur, Xanthium strumarium), smartweed (ladysthumb smartweed, and hairy beggarticks (Bidens pilosa), were planted into a silt loam soil and treated preemergence with test chemicals formulated in a non-phytotoxic solvent mixture which included a surfactant.
(§2) At the same time, plants from these crop and weed species and also horseweed (Canada horseweed, Conyza canadensis), waterhemp_RES1, (ALS & Triazine resistant common waterhemp, Amaranthus rudis), and waterhemp_RES2, (ALS & HPPD resistant common waterhemp, Amaranthus rudis) were planted in pots containing Redi-Earth® planting medium (Scotts Company, 14111 Scottslawn Road, Marysville, Ohio 43041) comprising spaghnum peat moss, vermiculite, wetting agent and starter nutrients were treated with postemergence applications of test chemicals formulated in the same manner. Plants ranged in height from 2 to 18 cm for postemergence treatments (1- to 4-leaf stage). Treated plants and controls were maintained in a greenhouse for 14 to 21 days, after which time all species were compared to controls and visually evaluated. Plant response ratings, summarized in Table E, are based on a scale of 0 to 100 where 0 is no effect and 100 is complete control. A dash (-) response means no test result.

The subject of assay [2] is fall panicum. Kind of assay: Test E postemergence. The format is in vivo, Panicum dichotomiflorum. To be noted: Panicum dichotomiflorum, post-emergence, read-out: Plant response rating, Panicum, Fall.
Text: as §1, §2

In assay [3] the test system is sandbur. Kind of assay: Test E postemergence. Type of assay: in vivo, Cenchrus echinatus. Particulars: Cenchrus echinatus, post-emergence, read-out: Plant response rating, Sandbur.
Text: as §1, §2

The mark [4] stands for this setting: Postemergence, 31 g ai/ha, scale 0 to 100.
[5] abbreviates: Postemergence, 62 g ai/ha, scale 0 to 100.
The mark [6] stands for this setting: Postemergence, 125 g ai/ha, scale 0 to 100.
Setting [7] is: Postemergence, 250 g ai/ha, scale 0 to 100.
Where [8] appears, read: postemergence, 16 g ai/ha, scale 0 to 100, 0 no effect, 100 complete control.

The structures appear in SMILES notation.

For `N#Cc1cccc(Oc2ncc(F)cn2)c1-n1cc(Cl)cn1` [Compound 73], the “Cocklebur plant response rating” value in assay [1] (16 g ai/ha) and in assay [1] (31 g ai/ha) was 0 each time. In addition, the “Plant response rating, Cocklebur” value in assay [1] (250 g ai/ha) is given as 25.

As for `Fc1cnc(Oc2ccccc2-n2cc(Br)cn2)nc1` [Compound 10, 2-[2-(4-bromo-1H-pyrazol-1-yl)phenoxy]-5-fluoropyrimidine], the pest or weed control at 31 g/ha in assay [2] (setting [4]) and in assay [3] (setting [4]) was 0% in each case. The pest or weed control at 62 g/ha in assay [2] (setting [5]) and in assay [3] (setting [5]) was 0% throughout. Moreover, the pest or weed control at 125 g/ha in assay [2] (setting [6]) and in assay [3] (setting [6]) was 0% throughout. Also, the pest or weed control at 250 g/ha in assay [2] (setting [7]) and in assay [3] (setting [7]) was 0% each time. Also, the pest or weed control at 16 g/ha in assay [2] (setting [8]) and in assay [3] (setting [8]) was 0% in each case.

For the compound `FC(F)(F)c1cnn(-c2c(Cl)cccc2Oc2ncc(Cl)cn2)c1` [Compound 167], the results for the “Cocklebur plant response rating” value in assay [1] (16 g ai/ha), in assay [1] (31 g ai/ha) and in assay [1] (62 g ai/ha) were 0, 0 and 100, respectively. Also, in assay [1] (125 g ai/ha), the “Plant response rating, Cocklebur” value stood at 90.
